The target of data set [1] is T1, Human recombinant liver glycogen phosphorylase a (hrl GPa) (Homo sapiens, UniProt P06737).
T1 sequence (P06737 1-847): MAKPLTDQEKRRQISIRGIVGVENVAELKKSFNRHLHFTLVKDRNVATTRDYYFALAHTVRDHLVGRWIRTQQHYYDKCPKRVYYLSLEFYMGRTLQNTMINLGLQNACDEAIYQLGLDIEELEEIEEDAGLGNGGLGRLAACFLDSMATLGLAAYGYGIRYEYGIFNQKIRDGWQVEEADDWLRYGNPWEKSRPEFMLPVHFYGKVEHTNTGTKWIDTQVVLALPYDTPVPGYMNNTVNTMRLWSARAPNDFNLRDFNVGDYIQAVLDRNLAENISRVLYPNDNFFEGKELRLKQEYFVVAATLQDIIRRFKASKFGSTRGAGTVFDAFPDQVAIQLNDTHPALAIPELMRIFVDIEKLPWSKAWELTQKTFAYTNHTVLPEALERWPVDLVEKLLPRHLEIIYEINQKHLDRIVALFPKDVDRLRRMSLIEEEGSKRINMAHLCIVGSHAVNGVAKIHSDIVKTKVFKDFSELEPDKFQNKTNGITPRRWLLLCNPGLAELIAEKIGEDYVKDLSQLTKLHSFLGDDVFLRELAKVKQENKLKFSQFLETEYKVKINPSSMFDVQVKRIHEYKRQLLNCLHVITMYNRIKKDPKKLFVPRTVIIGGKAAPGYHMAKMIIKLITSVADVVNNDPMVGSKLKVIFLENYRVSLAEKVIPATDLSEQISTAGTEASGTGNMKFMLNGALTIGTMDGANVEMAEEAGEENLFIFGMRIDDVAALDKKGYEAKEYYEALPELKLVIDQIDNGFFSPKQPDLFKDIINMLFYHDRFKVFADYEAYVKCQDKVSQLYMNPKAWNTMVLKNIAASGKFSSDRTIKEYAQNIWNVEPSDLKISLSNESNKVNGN
The experiment in a line: glycogen phosphorylase inhibition, multienzyme coupled assay. The class given is biochemical. The protocol:
The activity of the compounds is determined by measuring the inhibitory effect of the compounds on glycogen degradation, the production of glucose-1-phosphate from glycogen is monitored by the multienzyme coupled assay, as described in EP 0 846 464 A2, general method of Pesce et al (Pesce, M A, Bodourian, S H, Harris, R C, and Nicholson, J F (1977) Clinical Chemistry 23, […]). The reactions were in 384 well microplate format in a volume of 50 μl. The change in fluorescence due to the conversion of the co-factor NAD to NADH is measured at 340 nm excitation, 465 nm emission in a Tecan Ultra Multifunctional Microplate Reader. The reaction is in 50 mM HEPES, 3.5 mM KH2PO4, 2.5 mM MgCl2, 2.5 mM ethylene glycol-bis(b-aminoethyl ether) N,N,N′,N′-tetraacetic acid, 100 mM KCl, 8 mM D-(+)-glucose pH7.2, containing 0.5 mM dithiothreitol, the assay buffer solution. Human recombinant liver glycogen phosphorylase a (hrl GPa) 20 nM is pre-incubated in assay buffer solution with 6.25 mM NAD, 1.25 mg type III glycogen at 1.25 mg ml^−1 the reagent buffer, for 30 minutes. The coupling enzymes, phosphoglucomutase and glucose-6-phosphate dehydrogenase (Sigma) are prepared in reagent buffer, final concentration 0.25 Units per well. 20 μl of the hrl GPa solution is added to 10 μl compound solution and the reaction started with the addition of 20 μl coupling enzyme solution. Compounds to be tested are prepared in 10 μl 5% DMSO in assay buffer solution, with final concentration of 1% DMSO in the assay. The non-inhibited activity of GPa is measured in the presence of 10 μl 5% DMSO in assay buffer solution and maximum inhibition measured in the presence of 5 mgs ml^−1 N-ethylmaleimide. After 6 hours at 30° C. Relative Fluoresence Units (RFUs) are measured at 340 nm excitation, 465 nm emission.
The assay is performed at a test concentration of inhibitor of 10 μM or 100 μM.

For data set [2] the following is noted: conscious dogs, following a glucagon challenge; cited from earlier work.
The test system of the next data set is hepatocytes. Conditions: cited from earlier work.
The conditions of data set [3]: db/db and ob/ob mice; dose related; cited from earlier work.
The nature of another data set: thermodynamic solubility. The class given is physicochemical. The note with it: 0.1 M phosphate buffer, pH 7.4, aqueous buffer, thermodynamic from solid, 0.1 M phosphate at pH7.4 for 24 hours.
[4] abbreviates: hrl GPa 20 nM, 6 hours at 30° C., read-out: Activity (μM) IC50.

≈ marks a conversion by molar mass, not a printed value. Where two headings read alike, the source gives them in different places.

Consider “2-Chloro-N-{(1R,2R)-1-[[(2S)-2,3-dihydroxypropanoyl](methyl)amino]-2,3-dihydro-1H-inden-2-yl}-6H-thieno[2,3-b]pyrrole-5-carboxamide [Example 8]”, for which the IC50 came to 0.07 µM in data set [1] (setting [4]) and 0.176 µM in data set [1] (text b160, unit printed as nm, read-out: IC50).

Turning to `CCN1C(C)=C(C(=O)OC(C)C)C(c2ccccc2Cl)C2=C1COC2=O` (stereo not drawn) [Bay R 3401], in data set [2], the arterial plasma glucose entry was “reduced significantly” and the hepatic glucose output result is given as “reduced significantly”.

In the case of `CN(C)C(=O)[C@H](O)[C@H](Cc1ccccc1)NC(=O)c1cc2cc(Cl)ccc2[nH]1` [CP91149], in the data set with hepatocytes, the glucagon stimulated glycogenolysis entry is on record as “reduce” and the “glucose output in hepatocytes” value is on record as “reduce”. The plasma glucose concentration result in data set [3] is “reduced”.

As for `O=C(N[C@@H](Cc1ccc(F)cc1)C(=O)N1CCC(O)CC1)c1cc2cc(Cl)ccc2[nH]1` [CP320626], in the data set on hepatocytes, the glucagon stimulated glycogenolysis entry is “reduce” and the “glucose output in hepatocytes” value is recorded as “reduce”. Besides, the plasma glucose concentration entry in data set [3] is listed as “reduced”.

As to `COCC(=O)N(C)[C@@H]1c2ccccc2C[C@H]1NC(=O)c1cc2cc(Cl)sc2[nH]1` [Example 1, 2-Chloro-N-{(1R,2R)-1-[(methoxyacetyl)(methyl)amino]-2,3-dihydro-1H-inden-2-yl}-6H-thieno[2,3-b]pyrrole-5-carboxamide], the IC50 in data set [1] (text b160, read-out: IC50) came to 0.265 µM.

As to `CN(C(=O)[C@@H](N)CO)[C@@H]1c2ccccc2C[C@H]1NC(=O)c1cc2sc(Cl)c(Cl)c2[nH]1.Cl` [Example 27, 2,3-Dichloro-N-{(1R,2R)-1-[methyl(L-seryl)amino]-2,3-dihydro-1H-inden-2-y}-4H-thieno[3,2-b]pyrrole-5-carboxamide hydrochloride], the concentration for half-maximal inhibition (IC50) in data set [1] (setting [4]) is 0.11 µM. Besides, the solubility at 24 h in “thermodynamic solubility” was determined as 50 µM.

Take `CC(=O)N(C)[C@@H]1c2ccccc2C[C@H]1NC(=O)c1cc2sc(Cl)c(Cl)c2[nH]1` [Reference Eg 1]: in data set [1] (setting [4]), the IC50 was ~0.4 µM. This compound also returned a solubility at 24 h in the data set “thermodynamic solubility” of 1.4 µM (≈ 0.591 µg/mL).

The record behind these values is patent US20060264494A1, “Heterocyclic amide derivatives which process glycogen phorylase inhibitory activity” (AstraZeneca AB, priority 2003, published 2006).
